Key:
Ba/F3 ERBB2 YVMA = Ba/F3 ERBB2 YVMA (Homo sapiens, UniProt P04626, DUP772-775, cells depend on it); experiment: Cell viability assay (CellTiter Glo) in Ba/F3 cells engineered to express ERBB2 YVMA; format: cell-based, mouse; conditions: Ba/F3 cells expressing human ERBB2 YVMA mutant, 72 hours, % viability, read-out: Ba/F3 ERBB2 YVMA IC50
Method: Cells were treated with compounds, and cell viability was measured as a metric of kinase inhibition.
The Ba/F3 cell line is IL-3-dependent mouse cell line derived from the C3H mouse strain. Ba/F3 cell lines were engineered to express human ERBB2 or EGFR kinases, rendering the cells IL-3 independent. The lines were generated via retroviral transduction utilizing a Moloney murine leukemia virus (MMLV) promoter, and constructs are stably integrated into the cell genome. The sequences of the ERBB2 and EGFR genes used were NCBI Reference Sequences NM_004448.3 and NM_005228.3, respectively.
Similarly, Ba/F3 cell lines engineered to express EGFR, ERBB2, or ERBB2 mutants were grown, harvested, counted and seeded at 3000 cells per well in 96-well plates for the data sets shown in Tables B3-B4. A subset of wells contained media only (low control, “LC”).
Table B1 provides the growth media and number of cells seeded per well for the each cell line.
Compounds were dissolved in DMSO and serially diluted. Serially-diluted compound or a DMSO only control (high control, “HC”) was added to the plated cells in each well. […] The final proportion of DMSO never exceeded 0.1%.
Plates were placed in a 37° C., 5% CO2 incubator for 72 hours. Plates were then removed from the incubator and equilibrated for 15 minutes at room temperature. 40 μl of CellTiter Glo reagent (Promega) was added to measure the relative level of metabolically active cells by quantifying intracellular ATP concentrations. Plates were incubated for 30 minutes at room temperature, and luminescence was measured. Percent viability was normalized to a vehicle control only using the following formula: % viability=100×(Lumsample−LumLC)/(LumHC−LumLC). Graphical curves were fitted using a nonlinear regression model with a sigmoidal dose response.

[1] = biological target: T1, phosphorylated EGFR (pEGFR) (Homo sapiens, UniProt P00533); experiment: Detection of phosphorylated EGFR (pEGFR) in EGF-stimulated A431 cells (AlphaLISA); format: cell-based; conditions: A431 cells (10% FBS), 4 hours incubation, EGF 30 ng/mL for 10 minutes
T1 construct: performed to measure phosphorylated EGFR levels using A431 cells; endogenous in cells; host or cells: A431
T1 sequence (P00533 25-1210): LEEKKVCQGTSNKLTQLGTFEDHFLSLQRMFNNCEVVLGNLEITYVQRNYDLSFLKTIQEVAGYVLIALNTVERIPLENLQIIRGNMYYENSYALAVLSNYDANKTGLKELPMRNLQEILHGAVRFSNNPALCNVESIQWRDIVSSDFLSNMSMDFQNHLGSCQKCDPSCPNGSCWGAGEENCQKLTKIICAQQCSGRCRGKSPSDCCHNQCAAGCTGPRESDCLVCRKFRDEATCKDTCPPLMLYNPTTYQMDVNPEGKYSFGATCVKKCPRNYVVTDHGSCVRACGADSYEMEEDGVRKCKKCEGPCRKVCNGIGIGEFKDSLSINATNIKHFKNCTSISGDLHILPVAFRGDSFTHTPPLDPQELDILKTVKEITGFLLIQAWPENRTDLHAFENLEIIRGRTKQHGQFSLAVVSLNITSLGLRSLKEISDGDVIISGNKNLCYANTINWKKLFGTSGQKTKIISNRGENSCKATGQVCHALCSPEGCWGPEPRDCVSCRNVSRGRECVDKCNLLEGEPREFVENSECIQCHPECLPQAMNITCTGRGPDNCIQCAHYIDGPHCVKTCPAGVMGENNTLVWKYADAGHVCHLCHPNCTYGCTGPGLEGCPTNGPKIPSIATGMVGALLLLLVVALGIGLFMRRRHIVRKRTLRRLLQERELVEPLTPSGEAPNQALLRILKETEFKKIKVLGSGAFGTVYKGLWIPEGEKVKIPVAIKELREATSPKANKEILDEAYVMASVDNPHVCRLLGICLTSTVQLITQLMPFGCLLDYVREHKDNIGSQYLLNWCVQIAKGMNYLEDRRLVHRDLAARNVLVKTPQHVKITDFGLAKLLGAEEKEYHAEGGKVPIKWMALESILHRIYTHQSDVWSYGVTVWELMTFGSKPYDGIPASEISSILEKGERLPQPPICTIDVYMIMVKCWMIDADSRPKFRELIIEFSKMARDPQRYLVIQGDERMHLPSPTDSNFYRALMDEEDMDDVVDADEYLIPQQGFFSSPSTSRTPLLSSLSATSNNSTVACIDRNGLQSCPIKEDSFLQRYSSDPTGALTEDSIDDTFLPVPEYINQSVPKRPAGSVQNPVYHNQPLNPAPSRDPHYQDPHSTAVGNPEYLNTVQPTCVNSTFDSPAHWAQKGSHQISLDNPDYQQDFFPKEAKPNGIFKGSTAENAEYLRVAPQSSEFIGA
Method: Enzyme-linked immunosorbent assays (ELISA) were performed to measure phosphorylated EGFR levels using A431 cells (10% FBS). A431 (1.0*10^4 cells/40 μl/well) cells were seeded in 384 well. Compounds were dissolved in DMSO, serially diluted in DMSO and then were added, mixed, and incubated for 4 hours at 37° C., 5% CO2. Following the 4-hours incubation, cells were stimulated for 10 minutes with EGF (Invitrogen, cat #PHG0311) at a final concentration of 30 ng/mL in the incubator. The media was aspirated and cells were lysed in 10 μL lysis buffer with protease and phosphatase inhibitors (PerkinElmer, cat #ALSU-PEGFR-A50K). The plates were placed on a shaker for 5 minutes and then incubated for 30 min at 4° C. for complete lysis. The lysate was transferred to an Optiplate (Perkin Elmer, cat #6007290).
Acceptor mix (PerkinElmer, cat #ALSU-PEGFR-A50K) was prepared just before use and 5 μL was dispensed to all the wells, followed by a 1.5-2 h incubation at room temperature in dark. The donor mix (PerkinElmer, cat #ALSU-PEGFR-A50K) was prepared under low light conditions prior to use and 5 μl of donor mix was added to all the wells under subdued lighting or green filters. The plates were placed on a shaker for 5 min, sealed, and incubated overnight at room temperature in dark. Plates were read on the Envision (PerkinElmer) using standard AlphaLISA settings.
The percentage of inhibition on EGFR phosphorylation was calculated following equation: % Inhibition=100×(LumHC−LumSample)/(LumHC−LumLC). The low and high controls (LC/HC) are generated from lysate from wells with cells treated with DMSO or […] Staurosporine (BioAustralis, cat #BIA-S1086), […]. IC50 values were calculated by fitting the Curve using XLfit (v5.3.1.3), equation 201: Y=Bottom+ (Top−Bottom)/(1+10^((LogIC50−X)*HillSlope)).

[2] = biological target: T2, phosphorylated ERBB2 (pERBB2) (Homo sapiens, UniProt P04626); experiment: Detection of phosphorylated ERBB2 (pERBB2) by ELISA in BT-474 cells; format: cell-based; conditions: four hour incubation with compound
T2 construct: endogenous in cells; host or cells: BT-474
T2 sequence (P04626 23-1255): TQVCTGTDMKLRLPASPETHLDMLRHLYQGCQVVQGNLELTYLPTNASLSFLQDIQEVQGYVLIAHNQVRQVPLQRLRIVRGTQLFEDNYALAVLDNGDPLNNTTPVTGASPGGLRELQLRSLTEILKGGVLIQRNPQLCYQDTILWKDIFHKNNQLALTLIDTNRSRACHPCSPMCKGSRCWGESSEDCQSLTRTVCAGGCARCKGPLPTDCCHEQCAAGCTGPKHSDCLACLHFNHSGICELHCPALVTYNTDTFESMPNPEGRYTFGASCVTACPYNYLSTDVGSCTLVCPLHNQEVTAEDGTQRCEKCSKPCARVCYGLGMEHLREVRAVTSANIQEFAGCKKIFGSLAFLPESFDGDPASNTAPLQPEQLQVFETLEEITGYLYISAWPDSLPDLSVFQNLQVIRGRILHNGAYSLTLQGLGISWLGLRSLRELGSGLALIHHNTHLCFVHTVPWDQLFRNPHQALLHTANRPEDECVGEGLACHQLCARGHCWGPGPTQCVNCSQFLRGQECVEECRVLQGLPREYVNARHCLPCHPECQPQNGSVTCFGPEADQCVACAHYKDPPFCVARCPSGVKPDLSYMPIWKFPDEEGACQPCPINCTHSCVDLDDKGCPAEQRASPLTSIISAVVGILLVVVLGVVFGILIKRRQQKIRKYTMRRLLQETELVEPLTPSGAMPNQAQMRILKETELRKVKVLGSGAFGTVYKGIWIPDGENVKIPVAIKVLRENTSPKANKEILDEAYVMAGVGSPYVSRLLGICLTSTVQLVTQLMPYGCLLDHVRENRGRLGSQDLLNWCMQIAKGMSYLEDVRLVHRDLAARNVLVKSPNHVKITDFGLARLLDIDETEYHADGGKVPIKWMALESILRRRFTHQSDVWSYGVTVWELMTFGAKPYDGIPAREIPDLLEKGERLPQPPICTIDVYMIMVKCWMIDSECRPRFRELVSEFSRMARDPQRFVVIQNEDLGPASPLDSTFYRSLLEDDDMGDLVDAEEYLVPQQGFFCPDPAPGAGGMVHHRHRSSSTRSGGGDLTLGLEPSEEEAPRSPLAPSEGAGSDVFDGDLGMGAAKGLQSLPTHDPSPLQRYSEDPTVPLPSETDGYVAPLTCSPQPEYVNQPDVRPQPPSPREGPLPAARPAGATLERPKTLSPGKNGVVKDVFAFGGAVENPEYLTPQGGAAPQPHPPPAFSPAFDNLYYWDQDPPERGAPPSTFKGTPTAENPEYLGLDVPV
Method: BT-474 cells were seeded into a 96-well at 2.0*10^4 cells/100 μl/well. Compounds were dissolved and serially diluted in DMSO. The compounds were then were added, mixed, and incubated for four hours at 37° C., 5% CO2. Compounds were added using four-fold dilutions at final concentrations ranging from 10 μM to 0.01 nM. Following the four hour incubation with compounds, cell lysates were prepared. Plates were centrifuged for 5 min at 3000 RPM, and supernatant was removed from each well. Cells were washed 3 times by resuspension in 150 μl PBS, followed by centrifugation and removal of the supernatant, as above. […] Cells were incubated with lysis buffer for 1 hour at 4° C., and then stored at -80° C. Enzyme-linked immunosorbent assays (ELISA) were performed to measure phosphorylated ERBB2 levels. […] The next day, plates were washed with PBS+0.05% Tween20 (PBST). 150 μl of 5% BSA blocking solution was added for 1 hour at room temperature, with shaking. Plates were washed with PBST. Cell lysates were thawed and 100 μl of lysate was added to the ELISA plate. The plates were incubated for 2 hours at room temperature, with shaking. […] Plates were incubated for 1 hour at room temperature, with shaking. Plates were then washed with PBST, and 100 μl TMB substrate solution (R&D Systems, cat #DY999) was added. Plate were incubated in the dark for 20 minutes at room temperature. 50 μl of Stop solution (R&D Systems, cat #DY994) (50 μl) was added to each well and mixed. Optical density at 450 nm was read on an EnSpire plate reader (Perkin Elmer). The remaining kinase activity by calculated using the following formula: % Relative activity=100×([…]). The low and high control values (“LC” and “HC”) were generated from lysate from wells without cells or with cells treated with 0.1% DMSO, respectively.

Sequence of Ba/F3 ERBB2 YVMA (P04626 with tags, fused parts or gaps DUP772-775): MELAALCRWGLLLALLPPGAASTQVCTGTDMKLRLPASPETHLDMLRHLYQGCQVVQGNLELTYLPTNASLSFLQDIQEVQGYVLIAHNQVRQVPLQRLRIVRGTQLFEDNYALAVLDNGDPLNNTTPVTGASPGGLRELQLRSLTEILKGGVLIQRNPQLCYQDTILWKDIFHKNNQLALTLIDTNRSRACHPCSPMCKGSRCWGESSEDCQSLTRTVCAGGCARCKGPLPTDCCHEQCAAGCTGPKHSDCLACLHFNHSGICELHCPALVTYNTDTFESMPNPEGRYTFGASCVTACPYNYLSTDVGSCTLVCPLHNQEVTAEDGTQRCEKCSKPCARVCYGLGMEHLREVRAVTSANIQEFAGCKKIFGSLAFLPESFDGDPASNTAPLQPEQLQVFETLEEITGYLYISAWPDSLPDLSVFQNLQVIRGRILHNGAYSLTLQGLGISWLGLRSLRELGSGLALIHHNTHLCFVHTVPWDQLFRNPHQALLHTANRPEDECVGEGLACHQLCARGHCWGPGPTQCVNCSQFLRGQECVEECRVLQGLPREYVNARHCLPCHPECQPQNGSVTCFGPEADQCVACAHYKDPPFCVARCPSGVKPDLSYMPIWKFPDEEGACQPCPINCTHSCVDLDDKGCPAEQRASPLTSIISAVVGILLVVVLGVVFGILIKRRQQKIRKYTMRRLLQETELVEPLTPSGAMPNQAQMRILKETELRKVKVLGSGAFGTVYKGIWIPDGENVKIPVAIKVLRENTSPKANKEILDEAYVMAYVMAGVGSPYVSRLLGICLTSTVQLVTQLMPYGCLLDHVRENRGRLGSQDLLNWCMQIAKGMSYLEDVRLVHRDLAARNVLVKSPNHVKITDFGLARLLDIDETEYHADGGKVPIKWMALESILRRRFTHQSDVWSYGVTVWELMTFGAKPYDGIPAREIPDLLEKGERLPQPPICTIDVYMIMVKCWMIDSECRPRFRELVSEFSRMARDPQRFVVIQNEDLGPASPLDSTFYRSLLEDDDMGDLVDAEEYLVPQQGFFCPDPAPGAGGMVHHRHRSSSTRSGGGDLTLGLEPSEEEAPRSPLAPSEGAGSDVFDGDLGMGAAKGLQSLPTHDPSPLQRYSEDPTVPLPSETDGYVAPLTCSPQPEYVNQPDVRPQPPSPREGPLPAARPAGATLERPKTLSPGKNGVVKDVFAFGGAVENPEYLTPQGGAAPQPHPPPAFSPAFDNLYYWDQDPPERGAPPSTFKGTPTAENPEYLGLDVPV

SMILES	IC50 [1]	IC50 [2]	GI50 (Ba/F3 ERBB2 YVMA)
C=C(F)C(=O)N1CCN(c2ccc3ncnc(Nc4ccc(Oc5ccn6ncnc6c5)c(C)c4)c3n2)CC1 [Compound 13, 2-fluoro-1-(4-{4-[(3-methyl-4-{[1,2,4]triazolo[1,5-a]pyridin-7-yloxy}phenyl)amino]pyrido[3,2-d]pyrimidin-6-yl}piperazin-1-yl)prop-2-en-1-one]	> 10000 nM	97.5 nM	232 nM
C=CC(=O)N1CCCN(c2ccc3ncnc(Nc4ccc(Oc5ccn6ncnc6c5)c(C)c4)c3n2)CC1 [Compound 16, 1-(4-{4-[(3-methyl-4-{[1,2,4]triazolo[1,5-a]pyridin-7-yloxy}phenyl)amino]pyrido[3,2-d]pyrimidin-6-yl}-1,4-diazepan-1-yl)prop-2-en-1-one]	8010 nM	30.6 nM	99.5 nM
C=CC(=O)N1CCC2(CC1)CN(c1ccc3ncnc(Nc4ccc(Oc5ccn6ncnc6c5)c(C)c4)c3n1)C2 [Compound 19, 1-(2-{4-[(3-methyl-4-{[1,2,4]triazolo[1,5-a]pyridin-7-yloxy}phenyl)amino]pyrido[3,2-d]pyrimidin-6-yl}-2,7-diazaspiro[3.5]nonan-7-yl)prop-2-en-1-one]	> 10000 nM	98 nM	176 nM
C=CC(=O)N1CCC2(CCN(c3ccc4ncnc(Nc5ccc(Oc6ccn7ncnc7c6)c(C)c5)c4n3)C2)C1 (stereo not drawn) [Compound 20, 1-(7-{4-[(3-methyl-4-{[1,2,4]triazolo[1,5-a]pyridin-7-yloxy}phenyl)amino]pyrido[3,2-d]pyrimidin-6-yl}-2,7-diazaspiro[4.4]nonan-2-yl)prop-2-en-1-one]	> 10000 nM	37.9 nM	21 nM
C=CC(=O)N1CCC2(C1)CN(c1ccc3ncnc(Nc4ccc(Oc5ccn6ncnc6c5)c(C)c4)c3n1)C2 [Compound 21, 1-(2-{4-[(3-methyl-4-{[1,2,4]triazolo[1,5-a]pyridin-7-yloxy}phenyl)amino]pyrido[3,2-d]pyrimidin-6-yl}-2,6-diazaspiro[3.4]octan-6-yl)prop-2-en-1-one]	9420 nM	12.1 nM	9.76 nM
CC#CC(=O)N1CCN(c2ccc3ncnc(Nc4ccc(Oc5ccn6ncnc6c5)c(C)c4)c3n2)C[C@@H]1C [Compound 22, 1-[(2S)-2-methyl-4-{4-[(3-methyl-4-{[1,2,4]triazolo[1,5-a]pyridin-7-yloxy}phenyl)amino]pyrido[3,2-d]pyrimidin-6-yl}piperazin-1-yl]but-2-yn-1-one]	> 10000 nM	62.8 nM	34.9 nM

Now those with a lower IC50 [1], led by results:

IC50 [1]	IC50 [2]	SMILES	GI50 (Ba/F3 ERBB2 YVMA)
2360 nM	16.3 nM	C=CC(=O)N1CCN(c2ccc3ncnc(Nc4ccc(Oc5ccn6ncnc6c5)c(C)c4)c3n2)[C@H](C)C1 [Compound 11, 1-[(3R)-3-methyl-4-{4-[(3-methyl-4-{[1,2,4]triazolo[1,5-a]pyridin-7-yloxy}phenyl)amino]pyrido[3,2-d]pyrimidin-6-yl}piperazin-1-yl]prop-2-en-1-one]	17.9 nM
1180 nM	13.6 nM	C=CC(=O)N1CCN(c2ccc3ncnc(Nc4ccc(Oc5ccn6ncnc6c5)c(C)c4)c3n2)[C@@H](C)C1 [Compound 12, 1-[(3S)-3-methyl-4-{4-[(3-methyl-4-{[1,2,4]triazolo[1,5-a]pyridin-7-yloxy}phenyl)amino]pyrido[3,2-d]pyrimidin-6-yl}piperazin-1-yl]prop-2-en-1-one]	7.49 nM
1030 nM	10.7 nM	C=CC(=O)N1CCN(c2ccc3ncnc(Nc4ccc(Oc5ccn6ncnc6c5)c(C)c4)c3n2)C[C@@H]1C [Compound 9, 1-[(2S)-2-methyl-4-{4-[(3-methyl-4-{[1,2,4]triazolo[1,5-a]pyridin-7-yloxy}phenyl)amino]pyrido[3,2-d]pyrimidin-6-yl}piperazin-1-yl]prop-2-en-1-one]	7.5 nM
629 nM	19.8 nM	C=CC(=O)N1C2CC1CN(c1ccc3ncnc(Nc4ccc(Oc5ccn6ncnc6c5)c(C)c4)c3n1)C2 [Compound 15, 1-(3-{4-[(3-methyl-4-{[1,2,4]triazolo[1,5-a]pyridin-7-yloxy}phenyl)amino]pyrido[3,2-d]pyrimidin-6-yl}-3,6-diazabicyclo[3.1.1]heptan-6-yl)prop-2-en-1-one]	17.4 nM
403 nM	14.3 nM	C=CC(=O)N1CCN(c2ccc3ncnc(Nc4ccc(Oc5ccc6c(c5)ncn6C)c(C)c4)c3n2)CC1 [Compound 14, 1-{4-[4-({3-methyl-4-[(1-methyl-1,3-benzodiazol-5-yl)oxy]phenyl}amino)pyrido[3,2-d]pyrimidin-6-yl]piperazin-1-yl}prop-2-en-1-one]	7.83 nM
294 nM	8.74 nM	C=CC(=O)N1CCN(c2ccc3ncnc(Nc4ccc(Oc5ccn6ncnc6c5)c(C)c4)c3n2)C[C@H]1C [Compound 10, 1-[(2R)-2-methyl-4-{4-[(3-methyl-4-{[1,2,4]triazolo[1,5-a]pyridin-7-yloxy}phenyl)amino]pyrido[3,2-d]pyrimidin-6-yl}piperazin-1-yl]prop-2-en-1-one]	4.61 nM
293 nM	13.4 nM	C=CC(=O)N1C2CCC1CN(c1ccc3ncnc(Nc4ccc(Oc5ccn6ncnc6c5)c(C)c4)c3n1)C2 [Compound 18, 1-(3-{4-[(3-methyl-4-{[1,2,4]triazolo[1,5-a]pyridin-7-yloxy}phenyl)amino]pyrido[3,2-d]pyrimidin-6-yl}-3,8-diazabicyclo[3.2.1]octan-8-yl)prop-2-en-1-one]	6.26 nM
179 nM	20.1 nM	C=CC(=O)N1CC2CCC(C1)N2c1ccc2ncnc(Nc3ccc(Oc4ccn5ncnc5c4)c(C)c3)c2n1 [Compound 17, 1-(8-{4-[(3-methyl-4-{[1,2,4]triazolo[1,5-a]pyridin-7-yloxy}phenyl)amino]pyrido[3,2-d]pyrimidin-6-yl}-3,8-diazabicyclo[3.2.1]octan-3-yl)prop-2-en-1-one]	5.91 nM

Source: patent publication US20250136595A1, “ACYLATED HETEROCYCLIC QUINAZOLINE DERIVATIVES AS INHIBITORS OF ERBB2” (Enliven Inc., priority 2022, published 2025)
